Structures can show the parent of a compound that is named as a salt.
What was measured:
Assay type in all cases: cell-based
Kv1.5 = target: T1, Kv1.5 (Homo sapiens, UniProt P22460); experiment: Patch-clamp inhibition of cloned ion channel current in transfected HEK cells: Kv1.5; details: steady-state current, -80 mV to +60 mV
T1 construct: expressed in transfected cells; host or cells: HEK cells, transient transfection, vector pCDNA3
Experimental: (§1) The relevant cloned ion channels (e.g. cardiac hH1, Kv1.4, Kv1.5, Kv4.2, Kv2.1, HERG etc.) are studied by transient transfection into HEK cells using the mammalian expression vector pCDNA3. Transfections for each channel type are carried out separately to allow individual study of the ion channel of interest. Cells expressing channel protein are detected by cotransfecting cells with the vector pHook-1 (Invitrogen, San Diego, Calif., USA). […] Equal concentrations of individual channel and pHook DNA are incubated with 10× concentration of lipofectAce in Modified Eagle's Medium (MEM, Canadian Life Technologies) and incubated with parent HEK cells plated on 25 mm culture dishes. After 3–4 hours the solution is replaced with a standard culture medium plus 20% fetal bovine serum and 1% antimycotic. Transfected cells are maintained at 37C in an air/5% CO2 incubator in 25 mm Petri dishes plated on glass coverslips for 24–48 hours to allow channel expression to occur. 20 min prior to experiments, cells are treated with beads coated with phOX. After 15 min, excess beads are […] off with cell culture medium and cells which had beads stuck to them are used for electrophysiological tests.
(§2) For whole-cell recording the control pipette filling solution contained (in mM): KCl, 130; EGTA, 5; MgCl2, 1; HEPES, 10; Na2ATP, 4; GTP, 0.1; and is adjusted to pH 7.2 with KOH. The control bath solution contained (in mM): NaCl, 135; KCI, 5; sodium acetate, 2.8; MgCl2, 1; HEPES, 10; CaCl2, 1; and is adjusted to pH 7.4 with NaOH. The test ion channel modulating compound is dissolved to 10 mM stock solutions in water and used at concentrations between 0.5 and 100 μM.
(§3) Coverslips containing cells are removed from the incubator before experiments and placed in a superfusion chamber (volume 250 μl) containing the control bath solution at 22C to 23C. All recordings are made via the variations of the patch-clamp technique, using an Axopatch 200A amplifier (Axon Instruments, CA). Patch electrodes are pulled from thin-walled borosilicate glass (World Precision Instruments; FL) on a horizontal micropipette puller, fire-polished, and filled with appropriate solutions. Electrodes had resistances of […] when filled with control filling solution. Analog capacity compensation is used in all whole cell measurements. In some experiments, leak subtraction is applied to data. Membrane potentials have not been corrected for any junctional potentials that arose between the pipette and bath solution. Data are filtered at 5 to 10 kHz before digitization and stored on a microcomputer for later analysis using the pClamp6 software (Axon Instruments, Foster City, Calif.). Due to the high level of expression of channel cDNA's in HEK cells, there is no need for signal averaging. The average cell capacitance is quite small, and the absence of ionic current at negative membrane potentials allowed faithful leak subtraction of data.
(§4) The concentration-response curves for changes in peak and steady-state current produced by the test compound are computer-fitted to the Hill equation: f=1−1/[1+([…])^n] [1]
(§5) where f is the fractional current (f=Idrug/Icontrol) at drug concentration [D]; IC50 is the concentration producing half-maximal inhibition and n is the Hill coefficient.
(§6) Compounds of the present invention may be evaluated by this method. […] Block is determined from the decrease in peak hH1 Na^+ current, or in steady-state Kv1.5 and integrated Kv4.2 current in the presence of drug. To record Na^+ current, cells are depolarized from the holding potential of −100 mV to a voltage of −30 mV for 10 ms to fully open and inactivate the channel. To record Kv1.5 and Kv4.2 current, cells are depolarized from the holding potential of −80 mV to a voltage of +60 mV for 200 ms to fully open the channel. Currents are recorded in the steady-state at a range of drug concentrations during stimulation every 4 s. […]

HERG = target: T2, HERG (Homo sapiens, UniProt Q12809); experiment: Patch-clamp inhibition of cloned ion channel current in transfected HEK cells: HERG; details: whole-cell patch clamp
T2 construct: expressed in transfected cells; host or cells: HEK cells, transient transfection, vector pCDNA3
Experimental: as §1, §2, §3, §4, §5, §6

Kv4.2 = target: T3, Kv4.2 (Homo sapiens, UniProt Q9NZV8); experiment: Patch-clamp inhibition of cloned ion channel current in transfected HEK cells: Kv4.2; details: integrated current, -80 mV to +60 mV
T3 construct: expressed in transfected cells; host or cells: HEK cells, transient transfection, vector pCDNA3
T3 sequence (Q9NZV8 1-630): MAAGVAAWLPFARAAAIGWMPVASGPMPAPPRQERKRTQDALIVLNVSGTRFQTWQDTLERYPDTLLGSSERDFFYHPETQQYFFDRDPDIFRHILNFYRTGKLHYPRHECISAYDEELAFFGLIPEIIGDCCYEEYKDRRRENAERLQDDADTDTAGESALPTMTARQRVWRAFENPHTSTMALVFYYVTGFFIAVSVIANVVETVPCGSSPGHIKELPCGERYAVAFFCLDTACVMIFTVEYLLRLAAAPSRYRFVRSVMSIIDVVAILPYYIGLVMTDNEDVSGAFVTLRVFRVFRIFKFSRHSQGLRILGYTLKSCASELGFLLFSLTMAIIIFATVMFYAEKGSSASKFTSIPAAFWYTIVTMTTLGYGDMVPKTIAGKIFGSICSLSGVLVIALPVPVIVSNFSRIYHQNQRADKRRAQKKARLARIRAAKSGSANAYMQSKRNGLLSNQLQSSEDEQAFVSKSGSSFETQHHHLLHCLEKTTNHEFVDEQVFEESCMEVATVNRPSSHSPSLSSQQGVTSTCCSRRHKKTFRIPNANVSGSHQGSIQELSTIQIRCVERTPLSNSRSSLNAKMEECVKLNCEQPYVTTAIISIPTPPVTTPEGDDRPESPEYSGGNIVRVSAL
Experimental: as §1, §2, §3, §4, §5, §6

hH1 Na+ current = target: T4, hH1 Na+ current (Homo sapiens, UniProt Q14524); experiment: Patch-clamp inhibition of cloned ion channel current in transfected HEK cells: Na; details: peak hH1 Na+ current, -100 mV to -30 mV
T4 construct: expressed in transfected cells; host or cells: HEK cells, transient transfection, vector pCDNA3
Experimental: as §1, §2, §3, §4, §5, §6

T1 sequence (P22460 whole entry): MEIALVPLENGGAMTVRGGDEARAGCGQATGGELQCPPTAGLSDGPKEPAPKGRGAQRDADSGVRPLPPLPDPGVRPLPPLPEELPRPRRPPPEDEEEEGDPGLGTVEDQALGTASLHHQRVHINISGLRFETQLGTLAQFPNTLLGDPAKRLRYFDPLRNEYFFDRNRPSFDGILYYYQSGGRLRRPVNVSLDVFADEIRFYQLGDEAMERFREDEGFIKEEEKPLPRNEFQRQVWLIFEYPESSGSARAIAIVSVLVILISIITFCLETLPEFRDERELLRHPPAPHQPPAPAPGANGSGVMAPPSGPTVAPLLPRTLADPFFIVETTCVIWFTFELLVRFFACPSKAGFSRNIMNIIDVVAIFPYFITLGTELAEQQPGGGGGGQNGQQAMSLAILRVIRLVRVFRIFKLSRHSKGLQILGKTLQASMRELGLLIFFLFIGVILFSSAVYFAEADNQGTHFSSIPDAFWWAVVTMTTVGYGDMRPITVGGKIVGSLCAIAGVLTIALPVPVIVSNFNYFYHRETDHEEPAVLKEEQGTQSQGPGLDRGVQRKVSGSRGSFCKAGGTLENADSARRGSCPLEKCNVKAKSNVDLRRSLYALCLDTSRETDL
T4 sequence (Q14524 whole entry): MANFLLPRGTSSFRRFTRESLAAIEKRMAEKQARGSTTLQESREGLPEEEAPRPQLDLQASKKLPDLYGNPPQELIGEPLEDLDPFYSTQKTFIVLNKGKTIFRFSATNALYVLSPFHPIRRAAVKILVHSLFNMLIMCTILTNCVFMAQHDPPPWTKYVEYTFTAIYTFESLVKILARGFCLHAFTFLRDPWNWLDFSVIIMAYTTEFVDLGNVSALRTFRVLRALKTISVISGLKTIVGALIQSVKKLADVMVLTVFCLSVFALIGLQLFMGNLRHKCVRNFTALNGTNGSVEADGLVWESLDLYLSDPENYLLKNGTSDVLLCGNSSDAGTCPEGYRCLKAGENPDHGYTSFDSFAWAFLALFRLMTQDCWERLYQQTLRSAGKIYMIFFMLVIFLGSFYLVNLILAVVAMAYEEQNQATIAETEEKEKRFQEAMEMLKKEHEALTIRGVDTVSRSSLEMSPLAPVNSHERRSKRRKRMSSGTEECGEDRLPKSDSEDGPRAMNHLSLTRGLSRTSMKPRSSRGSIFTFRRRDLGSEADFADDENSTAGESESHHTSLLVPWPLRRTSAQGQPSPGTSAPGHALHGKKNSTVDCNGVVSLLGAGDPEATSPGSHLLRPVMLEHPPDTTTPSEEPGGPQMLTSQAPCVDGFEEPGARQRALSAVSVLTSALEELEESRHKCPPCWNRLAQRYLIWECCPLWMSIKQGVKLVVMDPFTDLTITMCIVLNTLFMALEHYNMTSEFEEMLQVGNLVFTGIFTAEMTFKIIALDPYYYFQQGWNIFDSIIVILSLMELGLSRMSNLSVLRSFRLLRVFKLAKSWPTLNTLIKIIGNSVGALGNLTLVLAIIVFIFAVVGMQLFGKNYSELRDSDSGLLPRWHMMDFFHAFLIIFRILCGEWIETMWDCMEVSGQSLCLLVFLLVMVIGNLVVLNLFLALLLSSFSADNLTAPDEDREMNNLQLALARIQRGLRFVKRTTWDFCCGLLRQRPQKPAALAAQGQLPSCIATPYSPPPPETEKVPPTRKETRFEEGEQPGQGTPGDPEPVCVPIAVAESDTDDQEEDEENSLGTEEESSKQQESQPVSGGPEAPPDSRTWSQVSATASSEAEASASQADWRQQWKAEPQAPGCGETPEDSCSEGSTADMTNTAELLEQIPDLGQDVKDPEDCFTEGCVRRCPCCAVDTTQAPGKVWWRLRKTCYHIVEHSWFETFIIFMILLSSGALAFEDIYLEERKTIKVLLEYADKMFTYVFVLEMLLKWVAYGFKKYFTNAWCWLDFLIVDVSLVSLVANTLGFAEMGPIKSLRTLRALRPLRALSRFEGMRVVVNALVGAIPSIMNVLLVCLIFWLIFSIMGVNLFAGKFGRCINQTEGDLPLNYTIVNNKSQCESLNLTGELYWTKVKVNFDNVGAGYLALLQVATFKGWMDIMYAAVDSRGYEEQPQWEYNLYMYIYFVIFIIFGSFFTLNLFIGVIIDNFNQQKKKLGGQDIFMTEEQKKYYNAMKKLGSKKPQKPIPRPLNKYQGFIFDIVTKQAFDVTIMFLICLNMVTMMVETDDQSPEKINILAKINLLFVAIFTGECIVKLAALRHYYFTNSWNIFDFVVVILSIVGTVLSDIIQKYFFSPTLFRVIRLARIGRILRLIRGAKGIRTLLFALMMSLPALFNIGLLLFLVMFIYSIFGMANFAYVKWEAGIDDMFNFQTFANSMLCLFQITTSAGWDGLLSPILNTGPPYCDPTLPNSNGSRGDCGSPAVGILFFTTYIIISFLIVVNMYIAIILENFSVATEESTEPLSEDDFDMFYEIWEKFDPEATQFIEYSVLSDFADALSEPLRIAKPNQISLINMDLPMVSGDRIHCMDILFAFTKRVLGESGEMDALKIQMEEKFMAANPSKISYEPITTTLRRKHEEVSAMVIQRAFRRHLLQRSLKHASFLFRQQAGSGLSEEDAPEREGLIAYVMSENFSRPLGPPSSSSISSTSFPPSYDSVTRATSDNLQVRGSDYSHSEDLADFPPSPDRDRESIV
T2 sequence (Q12809 whole entry): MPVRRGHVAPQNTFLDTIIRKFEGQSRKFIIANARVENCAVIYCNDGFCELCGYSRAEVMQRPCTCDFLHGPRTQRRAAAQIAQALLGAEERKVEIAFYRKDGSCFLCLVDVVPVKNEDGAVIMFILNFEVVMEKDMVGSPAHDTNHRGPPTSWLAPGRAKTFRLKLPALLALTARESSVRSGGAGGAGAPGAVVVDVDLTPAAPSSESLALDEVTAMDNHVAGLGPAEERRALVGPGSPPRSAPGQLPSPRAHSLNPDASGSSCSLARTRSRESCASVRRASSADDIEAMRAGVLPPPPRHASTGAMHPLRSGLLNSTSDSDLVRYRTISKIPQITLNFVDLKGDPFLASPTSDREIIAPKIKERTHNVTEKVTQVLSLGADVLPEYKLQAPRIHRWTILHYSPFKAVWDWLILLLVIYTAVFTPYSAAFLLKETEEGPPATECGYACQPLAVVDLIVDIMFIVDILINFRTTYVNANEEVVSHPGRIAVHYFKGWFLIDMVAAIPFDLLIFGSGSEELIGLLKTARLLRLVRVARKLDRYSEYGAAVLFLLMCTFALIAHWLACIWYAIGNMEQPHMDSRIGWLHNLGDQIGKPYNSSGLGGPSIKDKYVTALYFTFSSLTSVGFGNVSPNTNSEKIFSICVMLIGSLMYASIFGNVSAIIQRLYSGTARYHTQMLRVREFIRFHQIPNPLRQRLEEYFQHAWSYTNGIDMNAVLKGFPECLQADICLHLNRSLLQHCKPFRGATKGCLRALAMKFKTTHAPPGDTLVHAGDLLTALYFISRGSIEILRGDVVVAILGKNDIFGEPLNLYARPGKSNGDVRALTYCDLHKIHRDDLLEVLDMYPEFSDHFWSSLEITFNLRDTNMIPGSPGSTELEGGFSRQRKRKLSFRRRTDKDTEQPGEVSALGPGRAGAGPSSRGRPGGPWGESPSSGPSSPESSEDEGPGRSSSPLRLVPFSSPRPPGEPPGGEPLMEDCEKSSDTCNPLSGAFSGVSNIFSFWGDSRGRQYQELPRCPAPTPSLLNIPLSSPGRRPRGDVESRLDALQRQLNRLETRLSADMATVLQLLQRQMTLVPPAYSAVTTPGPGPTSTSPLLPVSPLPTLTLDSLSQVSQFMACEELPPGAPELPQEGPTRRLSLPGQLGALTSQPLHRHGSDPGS

| IC50 (Kv1.5) | IC50 (Kv4.2) | IC50 (hH1 Na+ current) | SMILES | IC50 (HERG) |
| --- | --- | --- | --- | --- |
| 0.1 µM | 0.8 µM | 1 µM | CCc1cn2cccc(OCCCc3ccc(Cl)cc3Cl)c2n1 [Compound 4, 8-[3-(2,4-DICHLOROPHENYL)PROPOXY]-2-ETHYLIMIDAZO[1,2-α]PYRIDINE MONOHYDROCHLORIDE] | 0.02 µM |
| 0.8 µM | 0.9 µM | 0.3 µM | Cc1cn2cccc(OCCCc3c(Cl)cccc3Cl)c2n1 [Compound 6, 8-[3-(2,6-DICHLOROPHENYL)PROPOXY]-2-Methylimidazo[1,2-α]PYRIDINE MONOHYDROCHLORIDE] | 0.3 µM |
| 0.8 µM | 11 µM | 1210 µM | Cc1cn2cccc(OCc3ccc(Cl)cc3Cl)c2n1 [Compound 8, 8-[2,4-DICHLOROBENZYLOXY]-2-METHYLIMIDAZO[1,2-α]PYRIDINE MONOHYDROCHLORIDE] | 0.4 µM |
| 11 µM | 14 µM | 152 µM | Cc1cn2cccc(OCCCOCc3ccccc3)c2n1 [Compound 11, 8-[3-BENZYLOXY-1-PROPOXY]-2-METHYLIMIDAZO[1,2-α]PYRIDINE MONOHYDROCHLORIDE] | 0.08 µM |
| 0.1 µM | 0.6 µM | 8 µM | FC(F)(F)c1cn2cccc(OCCCc3ccc(Cl)cc3Cl)c2n1 [Compound 15, 8-[3-(2,4-DICHLOROPHENYL)PROPOXY]-2-(TRIFLUOROMETHYL)IMIDAZO[1,2-α]PYRIDINE MONOHYDROCHLORIDE] | 1 µM |

Second part, the compound before the results:

| SMILES | IC50 (Kv1.5) | IC50 (Kv4.2) | IC50 (hH1 Na+ current) | IC50 (HERG) |
| --- | --- | --- | --- | --- |
| Clc1ccc(CCCOc2cccn3cc(-c4ccccc4)nc23)c(Cl)c1 [Compound 5, 8-[3-(2,4-DICHLOROPHENYL)PROPOXY]-2-PHENYLIMIDAZO[1,2-α]PYRIDINE MONOHYDROCHLORIDE] | 170 µM | 71 µM | 239 µM | 0.9 µM |
| Cc1cn2cccc(OCc3ccccc3C(F)(F)F)c2n1 [Compound 7, 2-METHYL-8-[2-(TRIFLUOROMETHYL)BENZYLOXY]IMIDAZO[1,2-α]PYRIDINE MONOHYDROCHLORIDE] | 5 µM | 10 µM | 15 µM | 0.8 µM |
| Cc1cn2cccc(OCCCC3CCCCC3)c2n1 [Compound 9, 8-[(3-CYCLOHEXYL)PROPOXY]-2-METHYLIMIDAZO[1,2-α]PYRIDINE MONOHYDROCHLORIDE] | 1 µM | 3 µM | 14 µM | 0.05 µM |
| Cc1cn2cccc(OCCCCCc3ccccc3)c2n1 [Compound 10, 2-METHYL-8-[5-PHENYL-1-PENTOXY]IMIDAZO[1,2-α]PYRIDINE MONOHYDROCHLORIDE] | 0.8 µM | 1 µM | 12 µM | 0.1 µM |
| Cc1cn2cccc(OCCC(c3ccccc3)c3ccccc3)c2n1 [Compound 12, 8-[3,3-DIPHENYL-1-PROPOXY]-2-METHYLIMIDAZO[1,2-α]PYRIDINE MONOHYDROCHLORIDE] | 0.6 µM | 1 µM | 3 µM | 0.004 µM |
| Cc1cn2cccc(OCC3(c4ccccc4)CC3)c2n1 [Compound 13, 2-METHYL-8-[(1-PHENYL-CYCLOPROPYL)METHOXY]IMIDAZO[1,2-α]PYRIDINE MONOHYDROCHLORIDE] | 0.7 µM | 3 µM | 8 µM | 0.4 µM |

Source: patent US7105534B2, “Imidazo[1,2-α]pyridine ether compounds as ion channel modulators” (Cardiome Pharma Corp., priority 2000, dated 2006)
